Laboratory results reported in patent publication US20060013804A1, “Modulation of stem cell differentiation by modulation of caspase-3 activity” (Ottawa Health Research Institute, priority 2002, published 2006).

System: PAK1
Test: Immunoprecipitation/kinase assay of PAK1 from neurospheres
Format: cell-based, mouse
Settings: differentiation media, vs DMSO
Description: Immunoprecipitation/Kinase activity assays: Immunoprecipitation/kinase analyses were performed as previously described (Fernando, P., et al., (2002) Proc Natl Acad Sci USA 99, 11025-11030). Cellular lysates from neurospheres were generated as described above. Antibodies against apoptotic signal-regulating kinase 1 (ASK1) (Upstate, USA), p21 activated kinase 1 (PAK1) (Cell Signaling Technologies, USA), and p38 MAPK (Santa Cruz, USA) were used to immunoprecipitate respective proteins. Samples were mixed with Protein G-sepharose beads for 1 h, washed and then mixed with kinase assay buffer containing myelin basic protein (MBP) and γ-32P[ATP]. Samples were reacted at 30° C. for 30 min and separated using SDS-PAGE. In some instances, samples were transferred to PVDF membrane following electrophoresis. To quantify kinase activities, MBP acrylamide bands were excised and solubilized in scintillation fluid prior to 32P-liquid scintillation analyses. In all cases, an activated recombinant mitogen activated protein kinase activated protein-2 (MAPKAP kinase-2) (Upstate, USA) was used as an internal control for liquid scintillation analyses.
Caspase 3, when processed to its active form, is capable of targeting and activating many protein kinases that mediate cellular differentiation. […]

- PAK1 activity: reduced
Structure (SMILES): COC(=O)CC[C@H](NC(=O)[C@H](CC(=O)OC)NC(=O)OCc1ccccc1)C(=O)N[C@H](C(=O)N[C@@H](CC(=O)OC)C(=O)CF)C(C)C [z-DEVD.fmk]
